Reference: patent US20230346940A1, “Method And System For Identifying And Validating Shared Candidate Antigens And Shared Antigen-Specific T Lymphocyte Pairs” (National University of Singapore, priority 2019, published 2023)
“Also recorded” adds a separate entry of the source.

Legend:
[1] = tested on: CD8+ T cells; experiment: HLA-A24 tetramer CyTOF screen of CRC patient PBMC; assay type: cell-based, human; conditions: 10 HLA-A24 positive CRC patients, validation cohort
Procedure: To determine whether CRC patients have CD8+ T cells that target any of the 75 SVPs that bind to HLA-A24, a CyTOF screen was conducted on a new cohort of 10 HLA-A24 positive CRC patients (validation cohort) using MHC tetramer staining of PBMC (procedure for performing this screen is similar to that described in Example 13). In total, antigen-specific CD8+ T cells that target eight splice variant peptides were identified from this screen.

[2] = tested on: CD8+ T cells; experiment: HLA-A11 tetramer CyTOF screen of CRC patient PBMC; assay type: cell-based, human; conditions: 8 HLA-A11 positive CRC patients; for antigen specific CD8+ T cells detected in CRC patients: validation cohort
Procedure: To determine if CRC patients have CD8+ T cells that target any of the 102 peptides that were identified in Example 12, a CyTOF screen was conducted on a new cohort of 8 CRC patients (validation cohort) using MHC tetramer staining of PBMC (FIG. 19(a)). These CRC patients are all positive for HLA-A11.
The 102 peptides were chemically synthesized by Mimotopes. These peptides were loaded onto biotinylated HLA-A11 by UV-mediated exchange. Streptavidin, labelled with three heavy metal barcodes, was bound to the peptide-loaded HLA-A11 to make the HLA-tetramers used for staining PBMCs.
To increase the sensitivity of detecting antigen-specific T cells, two different sets of heavy metal barcodes were used for each peptide. PBMCs from each patient were stained with these two sets of peptide-loaded HLA tetramers. Frequency co-concordance was used as an indication of specific staining for rare events.

[3] = tested on: CTLs; experiment: ELISPOT assay for IFN-γ in PBMCs from healthy donors; assay type: cell-based, human; conditions: PBMCs from healthy donors with or without stimulation with peptide
Procedure: T cells having a shared splice variant antigen, such as MARK3, can be expanded ex-vivo. In the case of MARK3, PBMC were obtained from healthy donors. An aliquot of these PBMCs was used to isolate monocytes (Human Monocyte Isolation Kit, STEMCELL Technologies) for subsequent differentiation to dendritic cells (ImmunoCult Dendritic Cell Culture kit, STEMCELL Technologies). These monocyte derived dendritic cells were treated with mitomycin C (30 μg/ml) to prevent outgrowth of these cells. These dendritic cells were then loaded with MARK3 peptide and used as antigen-presenting cells. CD8+ T cells were isolated (EasySep Human CD8+ T cell isolation kit, STEMCELL Technologies) from another aliquot of PBMCs and these cells were co-cultured with the antigen-presenting cells to stimulate the expansion of MARK3 specific T cells. To generate sufficient number of MARK3-specific T cells for functional characterisation or TCR identification, MARK3 peptide loaded monocyte derived dendritic cells or artificial antigen presenting cells may be used to further stimulate expansion of MARK3 specific T cells. Expansion of MARK3 specific T cells using the above method can be used for the treatment of patients.
Characterization of the MARK3 antigen and CD8+T lymphocytes was carried out by first determining whether MARK3 specific CTLs could be expanded in healthy donor PBMCs (as shown in Example 6). […]

[4] = tested on: CD8+ T cells; experiment: HLA-A11 tetramer CyTOF screen of gastric cancer patient PBMCs; assay type: cell-based, human; conditions: for CD8+ T-cells capable of recognizing the peptide antigen (HLA-A11 tetramer staining): PBMCs of 7 gastric cancer patients, validation cohort, CyTOF
From the text: In one specific example, as shown schematically in FIG. 7, the method 150 may include HLA tetramer staining of peripheral blood, including preparing HLA tetramers by bacterially expressing and purifying biotin tagged HLA loaded with a UV cleavable peptide. Individual shared candidate antigens are then loaded onto the HLA molecule by UV mediated peptide exchange. Addition of heavy metal barcoded streptavidin causes formation of a tetramer comprising a shared candidate antigen. Peripheral blood (e.g. PBMC) from one or more cohort of patients having the medical condition is stained with a pool of the HLA tetramer and analysis is then done using CyTOF.
(§1) To determine if GC patients have CD8+ T cells that target any of the 77 peptides that were identified in Example 2, a CyTOF screen was conducted on a new cohort of GC patients (the Validation cohort) using MHC tetramer staining of peripheral blood. The CyTOF screen was performed as described in Leong and Newell (2015). Chemically synthesized peptides were supplied by Mimotopes and were stored as dry powder at −20° C. These peptides were loaded onto biotinylated HLA-A11 by UV-mediated exchange. Streptavidin labelled with three heavy metal barcodes was bound to the peptide loaded HLA-A11 to make the HLA-tetramers used for staining peripheral blood (FIG. 7). HLA-A11 tetramer staining of 7 gastric cancer patients derived PBMCs was performed (FIG. 12(a)) and control peptides against the Epstein-Bar Virus (EBV) viral antigen were incorporated as positive control (FIG. 13). […] This antigen was generated from an alternative splicing event of the MARK3 gene identified in Example 2 (FIG. 11(b)). The sequence of the MARK3 splice variant antigen used in the CyTOF studies was RNMSFRIK (SEQ ID NO: 1) and the EBV peptide sequence was […] (SEQ ID NO: 2). […] Patient SC020 was also positive for T Cells that reacted with the positive control peptide from the EBV (FIG. 13). The presence of the MARK3 splice variant antigen in a fresh PBMC isolate from gastric cancer patient, SC020, was further confirmed by a FACS analysis using fluorescently labelled MARK3-A11-RNMSFRIK peptide tetramers (FIG. 12(b)).

[5] = tested on: CD8 T cells; experiment: FACS analysis with fluorescently labelled A11 MHC tetramers; assay type: cell-based, human; conditions: fresh PBMC isolate from gastric cancer patient SC020
Procedure: as §1, with “The presence of the MARK3 splice variant antigen in a fresh PBMC isolate from gastric cancer patient, SC020, was further confirmed by a FACS analysis using fluorescently labelled MARK3-A11-RNMSFRIK peptide tetramers (FIG. 12(b)).” left out

[6] = tested on: CD8+ T cells; experiment: moDC/CD8+ T-cell co-culture of healthy donors, tetramer FACS (immunogenicity); assay type: cell-based, human; conditions: HLA-A11 positive healthy donors, SVP 2.5 μM loaded moDC, 10 days co-culture, PE/APC tetramers
From the text: Antigen specific T-cells for LRR1, GRINA, and ZNF670 were initially identified in the SVP/HLA-A11 tetramer CyTOF screen (as described in Example 13). The immunogenicity of these targets was further assessed by testing whether antigen specific T-cells could be expanded in the PBMC of healthy donors who were HLA-A11 positive. PBMC were obtained from healthy donors and an aliquot was used to isolate monocytes (CD14 positive selection kit, STEMCELL Technologies) for subsequent differentiation to dendritic cells. Briefly, differentiation of monocytes to dendritic cells was carried out by culturing the isolated CD14 cells with IL4 (10 ng/ml) and GM-CSF (800 IU/ml) for 3 days and maturating the dendritic cells with IL4 (10 ng/ml), GM-CSF (800 IU/ml), LPS (10 ng/ml), IFN-γ (100 IU/ml), and the LRR1, GRINA and ZNF670 HLA-A11 SVP (2.5 μM) overnight. These monocyte derived dendritic cells were then cultured with CD8+ T cells which were isolated from another aliquot of PBMCs from the same donor using EasySep CD8 T cell isolation kit, STEMCELL Technologies. After 10 days of co-culture, expansion of antigen-specific T cells was detected by staining with tetramers (labelled with PE and APC) that have been loaded with the LRR1, GRINA and ZNF670 HLA-A11 SVP. […] Antigen-specific T-cells for these SVPs are not observed in CD8+ T cells in unstimulated PBMCs from healthy donors, whereas SVP-specific T-cells can be observed when they have been co-cultured with monocyte-derived dendritic cells that have been loaded with the SVP. In summary, antigen-specific CD8 T cells for LRR1, GRINA and ZNF670 were able to be generated in healthy donors, showing that these SVPs are immunogenic.

[7] = target: T1, MARK3 splice variant (inclusion of exon 24; MARK3 isoforms 1 and 3) peptide on HLA-A*11 (human); experiment: multimer staining
T1 peptide: RNMSFRFIK

[8] = listed as MARK3 splice variant antigen

How did the “antigen specific CD8+ T cells detected in CRC patients” value [1] turn out when “KWPPATETL (MZF1 spliced variant antigen)” was run?
Its value is “detected”.

Which “antigen specific CD8+ T cells detected in CRC patients” value [2] does the source give for “LTMAVKAEK (ZC3HAV splice variant antigen) [ZC3HAV1]” here?
Its value is “could be identified in one or more CRC patients”.

How did the “IFN-γ secreting CTLs” value [3] turn out when “RNMSFRFIK (MARK3 splice variant) [MARK3 peptide]” was run?
The value was “IFN-γ secreting CTLs are only observed when PBMCs were stimulated with MARK3 peptide”.

What about the “IFN-γ secreting CTLs” value [3, 8] of the same molecule?
The value was “antigenic”.

And the “positive hit out of 7 samples” value ([4]; CyTOF screen, 7 GC patients)?
Its value is 14%.

What about the “CD8+ T-cells capable of recognizing the peptide antigen (HLA-A11 tetramer staining)” value (“CD8+ T-cells capable” below) [4] of the same molecule?
Its value is “one out of 7”.

What about the “CD8+ T-cells capable” value [4, 8] of the same molecule?
Its value is “one of the patients, SC020, was found to be positive”.

And the “CD8+ T-cells capable” value ([4]; listed as MARK3 splice variant peptide)?
Its value is “has CTLs that react”.

And the “presence of antigen-specific CD8 T cells confirmed by FACS” value [5]?
The value was “confirmed”.

With “SCVSPSSELK (ZNF670 splice variant antigen)” as the molecule, how does the “expansion of antigen-specific CD8+ T cells (immunogenicity)” value [6] read?
The value was “observed only after stimulation; also recorded: immunogenic”.

And the “number of CRC patients in which detected” value [2]?
The value was “two”.

What about the “antigen specific CD8+ T cells detected in CRC patients” value [2] of the same molecule?
The value was “could be identified in one or more CRC patients”.

For “SIRQAFIRK (GRINA splice variant antigen)”, which “expansion of antigen-specific CD8+ T cells (immunogenicity)” value [6] is on record?
Its value is “observed only after stimulation; also recorded: immunogenic”.

And the “antigen specific CD8+ T cells detected in CRC patients” value [2]?
The value was “could be identified in one or more CRC patients”.

What does the source list for SLPRFGYRK (LRR1 splice variant antigen)?
expansion of antigen-specific CD8+ T cells (immunogenicity) [6]: observed only after stimulation; also recorded: immunogenic; antigen specific CD8+ T cells detected in CRC patients [2]: could be identified in one or more CRC patients; antigen specific CD8+ T cells detected in CRC patients ([2]; listed as SEQ ID NO: 36): detected; antigen specific CD8+ T cells detected in CRC patients ([2]; listed as SLPRFGYRK): detected in CRC patients

“SQLDFVKTRK (PARD3 splice variant antigen)” was tested. Which “antigen specific CD8+ T cells detected in CRC patients” value [2] did it give?
Its value is “could be identified in one or more CRC patients”.

With “SSCSSCPLSK (EBV peptide sequence) [control peptide against the Epstein-Bar Virus (EBV) viral antigen, positive control, reference compound]” as the molecule, how does the “CD8+ T-cells capable” value [4] read?
Its value is “positive”.

How did the “number of CRC patients in which detected” value [2] turn out when “SSFYALEEK (NBPF9 splice variant antigen)” was run?
The value was “two”.

What about the “antigen specific CD8+ T cells detected in CRC patients” value [2] of the same molecule?
Its value is “could be identified in one or more CRC patients”.

For “SYHSIPSLPRF (LRR1 splice variant antigen)”, which “antigen specific CD8+ T cells detected in CRC patients” value [1] is on record?
The value was “detected in CRC patients”.

What about the “antigen specific CD8+ T cells detected in CRC patients” value ([1]; listed as SEQ ID NO: 51) of the same molecule?
Its value is “detected”.

VIVSASRTK (YAF2 splice variant antigen) was tested. Which “antigen specific CD8+ T cells detected in CRC patients” value [2] did it give?
The value was “could be identified in one or more CRC patients”.

How did the “antigen specific CD8+ T cells detected in CRC patients” value [2] turn out when “VTSPSRRSK (CAMKK1 splice variant antigen)” was run?
The value was “could be identified in one or more CRC patients”.

B1: MARK3-specific TCR (MARK3 TRA chain and MARK3 TRB chain) (TCR, V domains shown)
Valpha: SQKIEQNSEALNIQEGKTATLTCNYTNYSPAYLQWYRQDPGRGPVFLLLIRENEKEKRKERLKVTFDTTLKQSLFHITASQPADSATYLCAPYTGGFKTIFGAGTRLFVKA
Vbeta: DTGVSQNPRHKITKRGQNVTFRCDPISEHNRLYWYRQTLGQGPEFLTYFQNEAQLEKSRLLSDRFSAERPKGSFSTLEIQRTEQGDSAMYLCASSSPRVGYGYTFGSGTRLTVV
Does B1 bind [7]?
Result: recognises
